Experimental data from patent US8846570B2, “Herbicidal compositions comprising 4-amino-3-chloro-5-fluoro-6-(4-chloro-2-fluoro-3-methoxyphenyl)pyridine-2-carboxylic acid or a derivative thereof and microtubule inhibiting herbicides” (Dow AgroSciences LLC, priority 2012, dated 2014).

Assays:
Experiment in all cases: Postemergence foliar-applied, cereal crops, greenhouse: visual weed control
Type in all cases: in vivo
Conditions in all cases: 21 DAA
[1] = tested on: Papaver rhoeas L. (PAPRH)
Method: (§1) Seeds of the desired test plant species were planted in Sun Gro MetroMix® 306 planting mixture, which typically has a pH of 6.0 to 6.8 and an organic matter content of about 30 percent, in plastic pots with a surface area of 103.2 square centimeters (cm^2). When required to ensure good germination and healthy plants, a fungicide treatment and/or other chemical or physical treatment was applied. The plants were grown for 7-36 days in a greenhouse with an approximate 14 hour photoperiod which was maintained at about 18° C. during the day and about 17° C. during the night. Nutrients and water were added on a regular basis and supplemental lighting was provided with overhead metal halide 1000-Watt lamps as necessary. The plants were employed for testing when they reached the second or third true leaf stage.
(§2) Treatments consisted of the benzyl ester of 4-amino-3-chloro-5-fluoro-6-(4-chloro-2-fluoro-3-methoxy-phenyl)pyridine-2-carboxylic acid (Compound A), formulated as an SC, a second cereal herbicide alone and then both in combination.
(§3) Other herbicidal components were applied on an active ingredient basis and included microtubule-inhibiting herbicides.
(§4) Measured aliquots of benzyl ester of 4-amino-3-chloro-5-fluoro-6-(4-chloro-2-fluoro-3-methoxy-phenyl)pyridine-2-carboxylic acid (Compound A) were placed in 25 milliliter (mL) glass vials and diluted in a volume of 1.25% (v/v) Agri-Dex® crop oil concentrate to obtain stock solutions. Compound requirements are based upon a 12 mL application volume at a rate of 187 liters per hectare (L/ha). Spray solutions of the second cereal herbicide and experimental compound mixtures were prepared by adding the stock solutions to the appropriate amount of dilution solution to form 12 mL spray solution with active ingredients in two- and three-way combinations. Formulated compounds were applied to the plant material with an overhead Mandel track sprayer equipped with an 8002E nozzle calibrated to deliver 187 L/ha over an application area of 0.503 square meters (m^2) at a spray height of 18 inches (46 cm) above average plant canopy. Control plants were sprayed in the same manner with the solvent blank.
(§5) The treated plants and control plants were placed in a greenhouse as described above and watered by sub-irrigation to prevent wash-off of the test compounds. After 20-22 days, the condition of the test plants as compared with that of the control plants was determined visually and scored on a scale of 0 to 100 percent where 0 corresponds to no injury and 100 corresponds to complete kill.
(§6) Colby's equation was used to determine the herbicidal effects expected from the mixtures (Colby, S. R. 1967. Calculation of the synergistic and antagonistic response of herbicide combinations. Weeds 15:20-22.).
(§7) The following equation was used to calculate the expected activity of mixtures containing two active ingredients, A and B: Expected=A+B−(A×B/100)

[2] = tested on: Kochia scoparia (L.) Schrad. (KCHSC)
Method: as §1, §2, §3, §4, §5, §6, §7

[3] = tested on: Cirsium arvense (L.) Scop. (CIRAR)
Method: as §1, §2, §3, §4, §5, §6, §7

[4] = tested on: Lamium purpureum L. (LAMPU)
Method: as §1, §2, §3, §4, §5, §6, §7

[5] = tested on: Stellaria media (L.) Vill. (STEME)
Method: as §1, §2, §3, §4, §5, §6, §7

[6] = tested on: Sinapis arvensis L. (SINAR)
Method: as §1, §2, §3, §4, §5, §6, §7

[7] = tested on: Amaranthus retroflexus L. (AMARE)
Method: as §1, §2, §3, §4, §5, §6, §7

[8] = tested on: Chenopodium album L. (CHEAL)
Method: as §1, §2, §3, §4, §5, §6, §7

**Q.** For `COc1c(Cl)ccc(-c2nc(C(=O)OCc3ccccc3)c(Cl)c(N)c2F)c1F` [Compound A Benzyl Ester, benzyl ester of 4-amino-3-chloro-5-fluoro-6-(4-chloro-2-fluoro-3-methoxy-phenyl)pyridine-2-carboxylic acid], which “Visual Weed Control (%) Obs” value ([1]; 2.5 g ai/ha) is on record?
**A.** 48%

**Q.** What about the “Visual Weed Control (%) Obs” value ([1]; 5 g ai/ha) of the same compound?
**A.** 28%

**Q.** And the “Visual Weed Control (%) Obs” value ([1]; 10 g ai/ha)?
**A.** 35%

**Q.** What about the “Visual Weed Control (%) Obs” value ([2]; 2.5 g ai/ha) of the same compound?
**A.** 20%

**Q.** And the “Visual Weed Control (%) Obs” value ([2]; 5 g ai/ha)?
**A.** 41%

**Q.** What about the “Visual Weed Control (%) Obs” value ([2]; 10 g ai/ha) of the same compound?
**A.** 62%

**Q.** And the “Visual Weed Control (%) Obs” value ([3]; 2.5 g ai/ha)?
**A.** 48%

**Q.** What about the “Visual Weed Control (%) Obs” value ([3]; 5 g ai/ha) of the same compound?
**A.** 39%

**Q.** What about the “Visual Weed Control (%) Obs” value ([3]; 10 g ai/ha) of the same compound?
**A.** 60%

**Q.** And the “Visual Weed Control (%) Obs” value ([4]; 2.5 g ai/ha)?
**A.** 80%

**Q.** What about the “Visual Weed Control (%) Obs” value ([4]; 5 g ai/ha) of the same compound?
**A.** 86%

**Q.** What about the “Visual Weed Control (%) Obs” value ([4]; 10 g ai/ha) of the same compound?
**A.** 94%

**Q.** What about the “Visual Weed Control (%) Obs” value ([5]; 2.5 g ai/ha) of the same compound?
**A.** 25%

**Q.** What about the “Visual Weed Control (%) Obs” value ([5]; 5 g ai/ha) of the same compound?
**A.** 25%

**Q.** What about the “Visual Weed Control (%) Obs” value ([5]; 10 g ai/ha) of the same compound?
**A.** 27%

**Q.** And the “Visual Weed Control (%) Obs” value ([6]; 2.5 g ai/ha)?
**A.** 70%

**Q.** What about the “Visual Weed Control (%) Obs” value ([6]; 5 g ai/ha) of the same compound?
**A.** 73%

**Q.** And the “Visual Weed Control (%) Obs” value ([7]; 2.5 g ai/ha)?
**A.** 20%

**Q.** What about the “Visual Weed Control (%) Obs” value ([7]; 5 g ai/ha) of the same compound?
**A.** 38%

**Q.** What about the “Visual Weed Control (%) Obs” value ([8]; 2.5 g ai/ha) of the same compound?
**A.** 50%

**Q.** What about the “Visual Weed Control (%) Obs” value ([8]; 5 g ai/ha) of the same compound?
**A.** 58%

**Q.** For `CCC(CC)Nc1c([N+](=O)[O-])cc(C)c(C)c1[N+](=O)[O-]` [Pendimethalin, N-(1-ethylpropyl)-3,4-dimethyl-2,6-dinitrobenzenamine, reference compound], which “Visual Weed Control (%) Obs” value ([1]; 150 g ai/ha) is on record?
**A.** 18%

**Q.** And the “Visual Weed Control (%) Obs” value ([1]; 300 g ai/ha)?
**A.** 38%

**Q.** What about the “Visual Weed Control (%) Obs” value ([1]; 600 g ai/ha) of the same compound?
**A.** 75%

**Q.** And the “Visual Weed Control (%) Obs” value ([2]; 150 g ai/ha)?
**A.** 10%

**Q.** And the “Visual Weed Control (%) Obs” value ([2]; 300 g ai/ha)?
**A.** 10%

**Q.** And the “Visual Weed Control (%) Obs” value ([2]; 600 g ai/ha)?
**A.** 57%

**Q.** And the “Visual Weed Control (%) Obs” value ([3]; 150 g ai/ha)?
**A.** 10%

**Q.** What about the “Visual Weed Control (%) Obs” value ([3]; 300 g ai/ha) of the same compound?
**A.** 10%

**Q.** What about the “Visual Weed Control (%) Obs” value ([3]; 600 g ai/ha) of the same compound?
**A.** 10%

**Q.** And the “Visual Weed Control (%) Obs” value ([4]; 150 g ai/ha)?
**A.** 0%

**Q.** What about the “Visual Weed Control (%) Obs” value ([4]; 300 g ai/ha) of the same compound?
**A.** 25%

**Q.** And the “Visual Weed Control (%) Obs” value ([4]; 600 g ai/ha)?
**A.** 53%

**Q.** And the “Visual Weed Control (%) Obs” value ([5]; 150 g ai/ha)?
**A.** 3%

**Q.** What about the “Visual Weed Control (%) Obs” value ([5]; 300 g ai/ha) of the same compound?
**A.** 5%

**Q.** What about the “Visual Weed Control (%) Obs” value ([5]; 600 g ai/ha) of the same compound?
**A.** 17%

**Q.** What about the “Visual Weed Control (%) Obs” value ([6]; 150 g ai/ha) of the same compound?
**A.** 3%

**Q.** What about the “Visual Weed Control (%) Obs” value ([6]; 300 g ai/ha) of the same compound?
**A.** 5%

**Q.** What about the “Visual Weed Control (%) Obs” value ([7]; 150 g ai/ha) of the same compound?
**A.** 3%

**Q.** What about the “Visual Weed Control (%) Obs” value ([7]; 300 g ai/ha) of the same compound?
**A.** 5%

**Q.** What about the “Visual Weed Control (%) Obs” value ([8]; 150 g ai/ha) of the same compound?
**A.** 0%

**Q.** And the “Visual Weed Control (%) Obs” value ([8]; 300 g ai/ha)?
**A.** 0%
